The subject of one experiment is DLD-1 cells. Put plainly: Soft agar colony formation assay (anchorage-independent proliferation). Type of experiment: cell-based. The note with it: 10 μM, 6 days in soft agar. Here is the method:
(§1) DLD-1, HCT-116, and HT-29 cells were cultured for 6 days in soft agar in the presence of DMSO (control), 10 μM BAY 11-7082, or 10 μM BAY 11-7085. The data points represent the means of colony counts per field (20×) performed in 5 different regions of the culture dishes. The data shown represent a typical result of two separate experiments. FIGS. 2B,C, show athymic mice received subcutaneous injections of HT-29 (B) or HCT-116 (C) cells, followed by […] of BAY 11-7085 (dark bars) or DMSO (white bars) intraperitoneally twice weekly. The bars represent the 25-75% ranges of the tumor volumes and the horizontal lines in the bars are the medians. Using the Kruskal-Wallace statistical test to compare the median tumor volumes between BAY 11-7085 and DMSO yielded a p-value of 0.005 for HT-29 cells but >0.05 for HCT-116 cells.
(§2) Anchorage-independent cell growth is a hallmark of cancer cells and is a good correlate to tumorigencity in vivo. Therefore, the effects of BAY 11-7082 and BAY 11-7085 were examined on colon cancer cell growth using the soft agar colony formation assay.

The next experiment concerns HT-29 cells. Described as above. It counts as cell-based. The note with it: 10 μM, 6 days in soft agar. The method, then:
as §1, §2

In another experiment the test system is adherent HT-29 cells. Put plainly: Apoptosis assay (annexin V-FITC / propidium iodide flow cytometry), adherent cells. The note with it: for level of apoptosis (annexin V-positive, propidium iodide-negative cells): doses up to 20 μM (MG-132 20 μM), 24 hours. It counts as cell-based. The method, then: The data points represent the average percent of annexin V-positive, propidium iodide-negative cells (of the total cells counted) from triplicate experiments. The error bars represent the standard error of the means. […] The results shown are a graphic representation of individual flow cytometry results expressed as the percentage of cells that were annexin V-positive of those that excluded propidium iodide. […] An immunoblot of the lysates for cleaved PARP was performed. Each lane represents equal total protein concentrations. […] The cells were allowed to adhere to plastic dishes for 1 hour after which they were washed gently in PBS and stained with crystal violet. The crystal violet stained cells were solubilized in deoxycholate and the absorbance detected in a spectrophotometer at 590 nm. The adherent cells were expressed as a fraction of the controls Each data point represents the average of triplicate experiments and the error bars the standard errors of the means.
(§3) Single cell suspensions were plated at 100,000 cells per well in 24-well plates in media containing DMSO, BAY 11-7082, BAY 11-7085, or MG-132 for 8-24 hours in an incubator. Alternatively, DMSO, BAY 11-7082, BAY 11-7085, or MG-132 were added to cells that were confluent and adherent for several days. The nonadherent cells were aspirated off with the media and spun for 3 minutes at 2,000 rpm in 15 ml polypropylene tubes. The adherent cells were washed twice with PBS, dispersed in trypsin, and spun down for 3 minutes at 2,000 rpm in 15 ml polypropylene tubes. The nonadherent and adherent cells were resuspended in 1× binding buffer (10 mM HEPES/NaOH, pH 7.4, 140 mM NaCl, and 2.5 mM CaCl2) to a final concentration of 10^6 cells/ml. 100 μl of the cell solution were transferred to a 5 ml culture tube and incubated with 5 μl of annexin V-FITC-conjugated monoclonal antibody (Pharmingen) and 10 μl of propidium iodide (from a 50 μg/ml stock solution made in PBS) in the dark at 25° C. for 15 minutes. 400 μl of binding buffer was added to each tube and the cells were analyzed by flow cytometry immediately. The percent of apoptosis was determined as the percent of annexin V-positive, propidium iodide-negative cells of the total cells counted.

Experiment [1] has as its system transiently suspended HT-29 cells. The experiment is described as follows: Apoptosis (annexin V) of transiently suspended cells allowed to readhere. Type of experiment: cell-based. Here is the method: HT-29 cells that were either transiently suspended with trypsin-EDTA or adherent for three days, were treated at time zero with DMSO or 10-100 μM BAY 11-7085. The percent of apoptotic cells was determined using the annexin V flow cytometry assay and graphed versus the dose of BAY 11-7085. […] The cells were fixed and immunostained with an NF-κB p65 subunit monoclonal antibody.
(§4) The transiently suspended cells were lysed and allowed to bind to DNA oligonucleotides, containing the NF-κB consensus binding site, that were immobilized to 96-well plates. NF-κB protein bound to the oligonucleotides was detected by an antibody to the p65 subunit that only recognized p65 that is bound to DNA. The positive control was HeLa cells that were stimulated with TNFα A control was performed using excess free NF-κB oligonucleotides (Competitor). […] NF-κB binding activity was determined by the TransAM assay as in FIG. 5A. […] The data shown represent typical results of three separate experiments. […] An immunoblot for COX-2 was performed.
The percentage of apoptotic cells was determined using the annexin V assay. The data points represent the averages of three experiments; bars, ±SE. E. DLD-1 and F. HT-29 cells were transduced with an adenovirus containing the IκB super-repressor construct. After 3 days, the cells were transiently suspended and allowed to readhere in the presence of subapoptotic concentrations of BAY 11-7085 or DMSO (vehicle) for 8 h. The data are expressed as fractions of cells surviving compared with the controls (no adenovirus) and were quantitatively determined by staining the remaining adherent cells with crystal violet.
as §3
Various concentrations of BAY 11-7085 were added to HT-29 cells that were transiently suspended in trypsin-PBS for approximately 15 minutes before replating. The transiently suspended cells were quickly allowed to readhere in order to prevent anoikis. Alternatively, BAY 11-7085 was added to adherent HT-29 cell monolayers.

Experiment [2] relates to transiently suspended DLD-1 cells. Described as above. It counts as cell-based. Here is the method: as §4, §3
Since trypsin can activate protease-activated receptor-2 in colon cancer cell lines, which then results in increased cell proliferation, (Darmoul et al., 2001) NF-κB activation was determined in adherent and confluent DLD-1, HCT-116, Caco-2 and HT-29 cells that were removed from plastic dishes by trypsin or scraping. […] To determine whether the transient activation of NF-κB caused by cell readhesion would render all of the colon cancer cells tested more susceptible to BAY 11-7085-induced apoptosis, DLD-1, HCT-116, Caco-2 and HT-29 colon cancer cell lines were transiently suspended, treated with BAY 11-7085 and allowed to readhere.

The subject of a further experiment is IκB phosphorylation. The note with it: Pierce et al., 1997; cited from earlier work.
The subject of experiment [3] is TNFα-induced NF-κB activation. The note with it: Pierce et al., 1997; cited from earlier work.
A further experiment concerns JNK/SAPK and p38. The note with it: Pierce et al., 1997; cited from earlier work.
Another experiment has as its system arthritis. The note with it: Pierce et al., 1997; cited from earlier work.
Where [4] appears, read: HT-29, increasing concentrations, 8 hours, 24 h.

“Also recorded” adds a separate entry of the source.

For the molecule `CC(C)(C)c1ccc(S(=O)(=O)/C=C/C#N)cc1` [BAY 11-7085, (2E)-3-[4-(tertiarybutylphenyl)sulfonyl]-2-propenenitrile], the “inhibition of anchorage-independent proliferation” value in the experiment with DLD-1 cells and in the experiment with HT-29 cells was “significantly inhibited” in each case. In addition, the “percentage of apoptosis in the non-adherent cell fraction at high vs lower concentrations” value in the experiment with adherent HT-29 cells (HT-29, 50 and 100 μM, cells annexin V and propidium iodide positive (necrotic)) was “decreased”. Also, in the experiment on adherent HT-29 cells (setting [4]), the “percentage of apoptotic cells among cells that became non-adherent” value is “majority; also recorded: predominantly apoptotic”. In addition, the “percentage of apoptotic cells among cells that remained adherent” value with adherent HT-29 cells (setting [4]) is “only a minority”. In the experiment with adherent HT-29 cells (adherent HT-29), the “level of apoptosis (annexin V-positive, propidium iodide-negative cells)” value was “relatively greater for MG-132 than BAY 11-7085; also recorded: caused an increase in the level of apoptosis”. Besides, the “apoptosis of adherent cell monolayers compared with transiently suspended cells” value in the experiment with adherent HT-29 cells (adherent HT-29, even the highest doses (10-100 μM)) is given as “only a relatively small degree of apoptosis”. Also, the “in vitro apoptotic threshold during readhesion” value in experiment [1] (HT-29) and in [2] was above 20 µM in each case. Also, the “share of transiently suspended, readhering cells that became apoptotic” value in experiment [1] (HT-29) and in [2] was “vast majority” throughout. Besides, the “BAY 11-7085-induced apoptosis during readhesion” value in experiment [1] (HT-29, transiently suspended, treated, allowed to readhere 8 hours) was “showed the same propensity for BAY 11-7085-induced apoptosis”; in experiment [2] (transiently suspended, treated, allowed to readhere 8 hours) it was “showed the same propensity for BAY 11-7085-induced apoptosis”. The “apoptosis of transiently suspended cells” value in [1] (HT-29 suspended in trypsin about 15 minutes then replated, 10-100 μM) is given as “caused a significant increase in apoptosis”. The “effect on IκB phosphorylation” value in the experiment with IκB phosphorylation is listed as “inhibit”. For the same molecule, the “effect on TNFα-induced NF-κB activation” value in experiment [3] is “inhibit”. Besides, in the experiment with JNK/SAPK and p38, the “effect on JNK/SAPK and p38” value was “activate JNK/SAPK and p38”. Besides, the “effect on NF-κB and arthritis in rodent models” value in the experiment on arthritis was “inhibit NF-κB and arthritis in rodent models”.

As to `Cc1ccc(S(=O)(=O)/C=C/C#N)cc1` [BAY 11-7082, (2E)-3-(tolysulfonyl)-2-propenenitrile], the “inhibition of anchorage-independent proliferation” value in the experiment on DLD-1 cells and in the experiment on HT-29 cells was “significantly inhibited” throughout. In addition, in the experiment with adherent HT-29 cells (adherent HT-29), the “level of apoptosis (annexin V-positive, propidium iodide-negative cells)” value is given as “caused an increase in the level of apoptosis”. Also, the “share of transiently suspended, readhering cells that became apoptotic” value in experiment [1] (HT-29) and in experiment [2] was “vast majority” throughout. Moreover, the “effect on IκB phosphorylation” value in the experiment with IκB phosphorylation is reported as “inhibit”. Besides, in experiment [3], the “effect on TNFα-induced NF-κB activation” value was “inhibit”. Moreover, the “effect on JNK/SAPK and p38” value with JNK/SAPK and p38 is “activate JNK/SAPK and p38”. The “effect on NF-κB and arthritis in rodent models” value with arthritis was “inhibit NF-κB and arthritis in rodent models”.

The values are drawn from patent publication US7989495B2, “Compositions and methods for inhibiting NF-κB mediated tumorigenicity and adhesion dependent survival of cancer cells” (University of Utah Research Foundation, priority 2002, dated 2011).
